From article PMC5392334, “Discovery and characterization of a novel irreversible EGFR mutants selective and potent kinase inhibitor CHMFL-EGFR-26 with a distinct binding mode” (Oncotarget, 2017)
Like-named read-outs stand apart in the source and are kept apart here.

Legend:
[1] = Pharmacokinetic properties in rats; type: in vivo; conditions: for MRT last: read-out: MRT(0-t)
Procedure: To further investigate the effect of CHMFL-EGFR-26 in vivo, we first examined its pharmacokinetic properties in rats (Supplementary Table 5). The half-life is 0.8 hour by oral dosing which is short but considering the irreversible binding mode, this short half-life was preferred. […]

PIK3CB = molecular target: T1, PIK3CB (Homo sapiens, UniProt P42338); assay: KinomeScan; type: binding; conditions: read-out: % control
T1 construct: purchased DiscoveRx KINOMEscan

CDK4 = molecular target: T2, CDK4 (Homo sapiens, UniProt P11802); assay: KinomeScan; type: binding; conditions: read-out: % control
T2 construct: purchased DiscoveRx KINOMEscan

TTK = molecular target: T3, TTK (Homo sapiens, UniProt P33981); assay: KinomeScan; type: binding; conditions: read-out: % control
T3 construct: purchased DiscoveRx KINOMEscan

SRPK1 = molecular target: T4, SRPK1 (Homo sapiens, UniProt Q96SB4); assay: KinomeScan; type: binding; conditions: read-out: % control
T4 construct: purchased DiscoveRx KINOMEscan

ERK4 = molecular target: T5, ERK4 (Homo sapiens, UniProt P31152); assay: KinomeScan; type: binding; conditions: read-out: % control
T5 construct: purchased DiscoveRx KINOMEscan

EPHA8 = molecular target: T6, EPHA8 (Homo sapiens, UniProt P29322); assay: KinomeScan; type: binding; conditions: read-out: % control
T6 construct: purchased DiscoveRx KINOMEscan

INSR = molecular target: T7, INSR (Homo sapiens, UniProt P06213); assay: KinomeScan; type: binding; conditions: read-out: % control
T7 construct: purchased DiscoveRx KINOMEscan

LTK = molecular target: T8, LTK (Homo sapiens, UniProt P29376); assay: KinomeScan; type: binding; conditions: read-out: % control
T8 construct: purchased DiscoveRx KINOMEscan

[2] = molecular target: T9, ABL1(H396P)-nonphosphorylated (Homo sapiens, UniProt P00519, H396P); assay: KinomeScan; type: binding; conditions: read-out: % control
T9 construct: purchased DiscoveRx KINOMEscan

NLK = molecular target: T10, NLK (Homo sapiens, UniProt Q9UBE8); assay: KinomeScan; type: binding; conditions: read-out: % control
T10 construct: purchased DiscoveRx KINOMEscan

[3] = test system: phosphorylation of STAT3 in HCC827 cells; assay: Signaling pathway examination (immunoblotting); type: cell-based; conditions: Homo sapiens, 4 hours
Text: We next examined the effects of CHMFL-EGFR-26 on EGFR mediated signaling pathways in NSCLC cell lines with different EGFR mutants. […] As expected, in the EGFR wt expressing NCSCL cell lines A549 and H1355, only autophosphorylation of EGFR was affected and none of the downstream mediators was inhibited.
Cells were then collected and lysed. Phospho-EGF Receptor, Phospho-EGF Receptor (Tyr1068), Stat3, Phospho-Stat3 (Tyr705), AKT, Phospho-AKT (Ser473), Phospho-AKT (Thr308), p44/42 MAPK (Erk1/2), Phospho-p44/42 MAPK (Erk1/2) (Thr202/ Tyr204), p70 S6 Kinase, Phospho-p70 S6 Kinase (Thr389), eIF4E, Phospho-eIF4E (Ser209), 4E-BP1, Phospho-4E-BP1 (Thr37/46) antibody (Cell Signaling Technology) were used for immunoblotting.

BaF3-FL-EGFR-del19 = assay: Anti-proliferation, BaF3 isogenic cell lines (CellTiter-Glo); type: cell-based; conditions: Mus musculus, 72 hours, triplet testing
PLK1 = molecular target: T11, PLK1 (Homo sapiens, UniProt P53350); assay: KinomeScan; type: binding; conditions: read-out: % control
T11 construct: purchased DiscoveRx KINOMEscan

RET(V804M) = molecular target: T12, RET(V804M) (Homo sapiens, UniProt P07949, V804M); assay: KinomeScan; type: binding; conditions: read-out: % control
T12 construct: purchased DiscoveRx KINOMEscan

IKK-alpha = molecular target: T13, IKK-alpha (Homo sapiens, UniProt O15111); assay: KinomeScan; type: binding; conditions: read-out: % control
T13 construct: purchased DiscoveRx KINOMEscan

BUB1 = molecular target: T14, BUB1 (Homo sapiens, UniProt O43683); assay: KinomeScan; type: binding; conditions: read-out: % control
T14 construct: purchased DiscoveRx KINOMEscan

[4] = molecular target: T15, RSK4(Kin.Dom.1-N-terminal) (Homo sapiens, UniProt Q9UK32); assay: KinomeScan; type: binding; conditions: read-out: % control
T15 construct: RSK4(Kin.Dom.1-N-terminal); purchased DiscoveRx KINOMEscan

WEE2 = molecular target: T16, WEE2 (Homo sapiens, UniProt P0C1S8); assay: KinomeScan; type: binding; conditions: read-out: % control
T16 construct: purchased DiscoveRx KINOMEscan

ERN1 = molecular target: T17, ERN1 (Homo sapiens, UniProt O75460); assay: KinomeScan; type: binding; conditions: read-out: % control
T17 construct: purchased DiscoveRx KINOMEscan

STK16 = molecular target: T18, STK16 (Homo sapiens, UniProt O75716); assay: KinomeScan; type: binding; conditions: read-out: % control
T18 construct: purchased DiscoveRx KINOMEscan

PIK3CA(E545A) = molecular target: T19, PIK3CA(E545A) (Homo sapiens, UniProt P42336, E545A); assay: KinomeScan; type: binding; conditions: read-out: % control
T19 construct: purchased DiscoveRx KINOMEscan

PRKX = molecular target: T20, PRKX (Homo sapiens, UniProt P51817); assay: KinomeScan; type: binding; conditions: read-out: % control
T20 construct: purchased DiscoveRx KINOMEscan

BaF3-TEL-EGFR-L858R = assay: Anti-proliferation, BaF3 isogenic cell lines (CellTiter-Glo); type: cell-based; conditions: Mus musculus, 72 hours, triplet testing
TRKB = molecular target: T21, TRKB (Homo sapiens, UniProt Q16620); assay: KinomeScan; type: binding; conditions: read-out: % control
T21 construct: purchased DiscoveRx KINOMEscan

CAMK1D = molecular target: T22, CAMK1D (Homo sapiens, UniProt Q8IU85); assay: KinomeScan; type: binding; conditions: read-out: % control
T22 construct: purchased DiscoveRx KINOMEscan

ABL2 = molecular target: T23, ABL2 (Homo sapiens, UniProt P42684); assay: KinomeScan; type: binding; conditions: read-out: % control
T23 construct: purchased DiscoveRx KINOMEscan

DDR1 = molecular target: T24, DDR1 (Homo sapiens, UniProt Q08345); assay: KinomeScan; type: binding; conditions: read-out: % control
T24 construct: purchased DiscoveRx KINOMEscan

S6K1 = molecular target: T25, S6K1 (Homo sapiens, UniProt P23443); assay: KinomeScan; type: binding; conditions: read-out: % control
T25 construct: purchased DiscoveRx KINOMEscan

MAP3K15 = molecular target: T26, MAP3K15 (Homo sapiens, UniProt Q6ZN16); assay: KinomeScan; type: binding; conditions: read-out: % control
T26 construct: purchased DiscoveRx KINOMEscan

PRKD2 = molecular target: T27, PRKD2 (Homo sapiens, UniProt Q9BZL6); assay: KinomeScan; type: binding; conditions: read-out: % control
T27 construct: purchased DiscoveRx KINOMEscan

INSRR = molecular target: T28, INSRR (Homo sapiens, UniProt P14616); assay: KinomeScan; type: binding; conditions: read-out: % control
T28 construct: purchased DiscoveRx KINOMEscan

[5] = rat, in vivo, po, P.O. (10mg/kg)

T8 sequence (P29376 17-864): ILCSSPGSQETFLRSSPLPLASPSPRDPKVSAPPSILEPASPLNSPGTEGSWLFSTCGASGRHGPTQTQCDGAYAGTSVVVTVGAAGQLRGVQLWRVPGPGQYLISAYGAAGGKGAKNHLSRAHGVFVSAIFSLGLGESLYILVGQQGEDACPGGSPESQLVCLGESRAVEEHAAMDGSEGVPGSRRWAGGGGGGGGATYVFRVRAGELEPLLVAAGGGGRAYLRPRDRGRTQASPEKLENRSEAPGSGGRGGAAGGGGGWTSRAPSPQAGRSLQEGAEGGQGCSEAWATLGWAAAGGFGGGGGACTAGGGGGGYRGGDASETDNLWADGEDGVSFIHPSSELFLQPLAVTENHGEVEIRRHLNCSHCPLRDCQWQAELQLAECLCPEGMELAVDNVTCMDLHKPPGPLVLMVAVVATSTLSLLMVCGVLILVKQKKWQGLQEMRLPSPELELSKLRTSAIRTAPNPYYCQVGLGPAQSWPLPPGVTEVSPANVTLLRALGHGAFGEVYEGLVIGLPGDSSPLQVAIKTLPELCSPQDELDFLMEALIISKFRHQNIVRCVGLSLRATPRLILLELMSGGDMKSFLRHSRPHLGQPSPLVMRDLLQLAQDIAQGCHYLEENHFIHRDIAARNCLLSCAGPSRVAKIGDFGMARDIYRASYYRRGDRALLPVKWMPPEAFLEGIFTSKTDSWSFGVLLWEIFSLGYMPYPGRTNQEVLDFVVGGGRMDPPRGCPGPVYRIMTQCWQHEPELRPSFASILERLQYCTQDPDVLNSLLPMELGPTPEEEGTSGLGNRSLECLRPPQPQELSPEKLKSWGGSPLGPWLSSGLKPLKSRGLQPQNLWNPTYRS
T24 sequence (Q08345 19-913): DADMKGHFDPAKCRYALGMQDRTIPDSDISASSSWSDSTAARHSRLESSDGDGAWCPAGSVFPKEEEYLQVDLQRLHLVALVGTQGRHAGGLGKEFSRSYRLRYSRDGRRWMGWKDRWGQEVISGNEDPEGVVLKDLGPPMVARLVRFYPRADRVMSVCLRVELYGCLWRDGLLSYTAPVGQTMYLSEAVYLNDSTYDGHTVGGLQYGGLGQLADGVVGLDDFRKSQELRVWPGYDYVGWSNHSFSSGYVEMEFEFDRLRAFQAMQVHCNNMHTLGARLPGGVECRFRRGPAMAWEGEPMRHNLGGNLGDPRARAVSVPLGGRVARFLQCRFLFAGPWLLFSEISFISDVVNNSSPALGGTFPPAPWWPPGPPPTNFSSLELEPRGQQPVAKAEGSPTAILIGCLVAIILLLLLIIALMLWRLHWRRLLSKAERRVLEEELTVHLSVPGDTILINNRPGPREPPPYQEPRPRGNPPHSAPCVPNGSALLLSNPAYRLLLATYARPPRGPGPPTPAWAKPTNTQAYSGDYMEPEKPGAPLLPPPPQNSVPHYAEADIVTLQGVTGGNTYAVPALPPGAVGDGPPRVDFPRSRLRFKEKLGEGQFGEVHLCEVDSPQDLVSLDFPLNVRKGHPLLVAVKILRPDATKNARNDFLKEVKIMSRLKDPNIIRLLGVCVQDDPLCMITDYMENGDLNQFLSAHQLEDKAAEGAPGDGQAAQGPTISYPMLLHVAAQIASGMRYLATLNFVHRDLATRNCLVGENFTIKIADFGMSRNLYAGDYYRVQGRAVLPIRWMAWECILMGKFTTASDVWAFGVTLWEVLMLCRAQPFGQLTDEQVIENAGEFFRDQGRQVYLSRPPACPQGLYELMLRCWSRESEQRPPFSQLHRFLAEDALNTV
T3 sequence (P33981 whole entry): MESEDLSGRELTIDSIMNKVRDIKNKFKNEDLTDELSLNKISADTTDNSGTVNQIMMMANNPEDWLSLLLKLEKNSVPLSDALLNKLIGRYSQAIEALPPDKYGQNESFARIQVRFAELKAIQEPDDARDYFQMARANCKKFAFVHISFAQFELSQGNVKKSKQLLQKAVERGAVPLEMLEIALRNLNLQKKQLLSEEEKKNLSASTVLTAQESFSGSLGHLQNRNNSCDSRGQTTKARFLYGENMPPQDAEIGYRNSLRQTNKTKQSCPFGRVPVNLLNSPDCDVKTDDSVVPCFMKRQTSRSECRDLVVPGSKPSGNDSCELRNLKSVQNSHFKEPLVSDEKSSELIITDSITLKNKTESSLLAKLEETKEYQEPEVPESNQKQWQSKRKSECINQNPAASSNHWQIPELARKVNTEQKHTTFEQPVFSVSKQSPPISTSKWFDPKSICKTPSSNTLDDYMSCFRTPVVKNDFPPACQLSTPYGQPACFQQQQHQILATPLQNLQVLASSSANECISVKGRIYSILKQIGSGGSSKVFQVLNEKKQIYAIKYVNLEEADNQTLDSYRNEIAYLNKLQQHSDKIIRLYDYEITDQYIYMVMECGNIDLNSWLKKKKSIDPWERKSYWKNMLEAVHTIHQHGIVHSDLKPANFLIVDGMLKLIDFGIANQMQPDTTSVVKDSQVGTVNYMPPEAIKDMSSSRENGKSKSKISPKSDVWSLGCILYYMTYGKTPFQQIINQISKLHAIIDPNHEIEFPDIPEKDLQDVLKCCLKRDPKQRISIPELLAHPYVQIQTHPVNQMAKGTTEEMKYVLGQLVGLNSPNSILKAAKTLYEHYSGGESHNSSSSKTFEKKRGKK
T19 sequence (P42336 whole entry E545A): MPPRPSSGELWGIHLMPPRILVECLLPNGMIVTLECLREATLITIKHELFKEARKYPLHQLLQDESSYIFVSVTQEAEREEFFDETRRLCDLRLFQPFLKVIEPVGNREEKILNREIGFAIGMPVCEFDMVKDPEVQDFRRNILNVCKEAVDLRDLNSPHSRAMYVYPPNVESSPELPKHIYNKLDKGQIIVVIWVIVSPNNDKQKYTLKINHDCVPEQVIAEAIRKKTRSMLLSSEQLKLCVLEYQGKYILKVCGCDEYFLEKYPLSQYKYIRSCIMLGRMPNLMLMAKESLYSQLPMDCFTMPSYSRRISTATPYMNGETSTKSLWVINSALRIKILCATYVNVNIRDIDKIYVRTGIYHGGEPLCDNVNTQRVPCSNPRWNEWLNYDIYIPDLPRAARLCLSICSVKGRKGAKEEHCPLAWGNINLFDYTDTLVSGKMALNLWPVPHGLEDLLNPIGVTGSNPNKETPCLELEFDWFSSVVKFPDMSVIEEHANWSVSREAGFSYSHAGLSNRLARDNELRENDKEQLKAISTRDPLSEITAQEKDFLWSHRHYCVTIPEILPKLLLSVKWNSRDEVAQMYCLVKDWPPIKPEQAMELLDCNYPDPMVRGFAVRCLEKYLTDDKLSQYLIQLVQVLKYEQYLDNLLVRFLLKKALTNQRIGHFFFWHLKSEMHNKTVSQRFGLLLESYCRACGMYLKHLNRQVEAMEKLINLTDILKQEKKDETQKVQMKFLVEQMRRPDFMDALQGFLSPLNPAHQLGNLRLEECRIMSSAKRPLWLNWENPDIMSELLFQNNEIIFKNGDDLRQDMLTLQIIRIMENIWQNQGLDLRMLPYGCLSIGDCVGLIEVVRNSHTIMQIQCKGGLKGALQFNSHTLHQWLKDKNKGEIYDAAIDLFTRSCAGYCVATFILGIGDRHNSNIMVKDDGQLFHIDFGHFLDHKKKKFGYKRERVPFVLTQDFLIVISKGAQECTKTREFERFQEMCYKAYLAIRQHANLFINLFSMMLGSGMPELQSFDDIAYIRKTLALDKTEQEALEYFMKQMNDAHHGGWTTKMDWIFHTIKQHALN
T28 sequence (P14616 27-1297): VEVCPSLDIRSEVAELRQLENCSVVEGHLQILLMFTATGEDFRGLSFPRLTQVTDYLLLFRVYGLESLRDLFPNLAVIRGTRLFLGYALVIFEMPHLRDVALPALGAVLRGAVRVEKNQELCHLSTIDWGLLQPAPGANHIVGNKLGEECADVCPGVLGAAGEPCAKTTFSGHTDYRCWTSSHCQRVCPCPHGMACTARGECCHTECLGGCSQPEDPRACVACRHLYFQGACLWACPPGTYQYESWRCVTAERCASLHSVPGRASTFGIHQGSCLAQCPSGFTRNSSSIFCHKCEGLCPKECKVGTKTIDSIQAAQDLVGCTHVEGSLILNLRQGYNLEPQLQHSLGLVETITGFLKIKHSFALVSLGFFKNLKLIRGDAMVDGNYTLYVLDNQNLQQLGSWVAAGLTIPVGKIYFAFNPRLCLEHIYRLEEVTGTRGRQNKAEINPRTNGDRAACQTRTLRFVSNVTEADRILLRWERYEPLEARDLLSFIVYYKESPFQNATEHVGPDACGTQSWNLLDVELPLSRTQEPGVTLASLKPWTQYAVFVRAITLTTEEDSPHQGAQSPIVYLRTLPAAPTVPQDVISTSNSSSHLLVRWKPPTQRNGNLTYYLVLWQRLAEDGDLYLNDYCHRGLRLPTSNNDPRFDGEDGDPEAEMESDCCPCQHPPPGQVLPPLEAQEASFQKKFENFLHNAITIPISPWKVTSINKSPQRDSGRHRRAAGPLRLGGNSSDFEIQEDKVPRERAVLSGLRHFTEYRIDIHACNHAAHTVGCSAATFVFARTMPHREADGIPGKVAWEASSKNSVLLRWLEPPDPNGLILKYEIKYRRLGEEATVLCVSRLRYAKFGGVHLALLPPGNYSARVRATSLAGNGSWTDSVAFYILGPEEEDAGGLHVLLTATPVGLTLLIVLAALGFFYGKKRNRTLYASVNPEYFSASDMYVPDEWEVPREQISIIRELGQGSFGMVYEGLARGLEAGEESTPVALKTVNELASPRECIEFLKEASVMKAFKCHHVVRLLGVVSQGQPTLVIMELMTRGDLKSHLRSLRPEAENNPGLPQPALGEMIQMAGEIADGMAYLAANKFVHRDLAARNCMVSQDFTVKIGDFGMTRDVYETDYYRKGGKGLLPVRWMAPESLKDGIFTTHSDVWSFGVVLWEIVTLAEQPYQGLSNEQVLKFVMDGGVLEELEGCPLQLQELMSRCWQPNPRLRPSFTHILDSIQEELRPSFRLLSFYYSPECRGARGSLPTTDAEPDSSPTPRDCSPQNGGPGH

`C=CC(=O)N1CCC[C@@H](n2nc(-c3ccc(OCc4cccc(C)n4)c(Cl)c3)c3c(N)ncnc32)C1` [CHMFL-EGFR-26] showed a CLz ([1]; P.O. (10mg/kg)) of 2.53 ± 0.45 L/h/kg, a Vz ([1]; P.O. (10mg/kg)) of 2.62 ± 0.14 L/kg and a T1/2 ([1]; P.O. (10mg/kg), 10 mg/kg) of 48 min. For the same compound, the half-life ([1]; rat, in vivo, iv, 1 mg/kg, I.V (1mg/kg)) was 18.6 ± 4.92 min, the AUC(0-inf) ([1]; rat, in vivo, iv, I.V (1mg/kg)) was 1190 ± 143 ng·h/mL and the AUC(0-t) ([1]; rat, in vivo, iv, I.V (1mg/kg)) was 1190 ± 142 ng·h/mL. The Cmax ([1]; rat, in vivo, iv, I.V (1mg/kg)) was 10600 ± 1650 ng/mL, the Tmax ([1]; rat, in vivo, iv, I.V (1mg/kg)) was 1.02 min and the clearance ([1]; rat, in vivo, iv, I.V (1mg/kg), read-out: CLz (converted)) was 14.2 mL/min/kg. It also gave an MRT last ([1]; rat, in vivo, iv, I.V (1mg/kg)) of 10.8 ± 2.1 min, a Vd ([1]; rat, in vivo, iv, I.V (1mg/kg), read-out: Vz) of 0.38 ± 0.13 L/kg and a half-life ([1]; rat, in vivo, po, 10 mg/kg, P.O. (10mg/kg)) of 44.4 ± 9 min. It also gave an AUC(0-inf) [1, 5] of 4040 ± 717 ng·h/mL, an AUC(0-t) [1, 5] of 4040 ± 716 ng·h/mL and a Cmax [1, 5] of 5210 ± 859 ng/mL. The Tmax [1, 5] was 19.8 ± 8.4 min, the bioavailability ([1]; rat, in vivo, po, P.O. (10mg/kg), read-out: F% (bioavailability)) was 33.8% and the MRT last [1, 5] was 43.2 ± 4.14 min. It also gave a remaining binding at 1 µM (PIK3CB) of 94%, a remaining binding at 1 µM (CDK4) of 100% and a remaining binding at 1 µM (TTK) of 95%. It also gave a remaining binding at 1 µM (SRPK1) of 100%, a remaining binding at 1 µM (ERK4) of 83% and a remaining binding at 1 µM (EPHA8) of 89%. It also gave a remaining binding at 1 µM (INSR) of 100%, a remaining binding at 1 µM (LTK) of 94% and a remaining binding at 1 µM [2] of 100%. For the same compound, the remaining binding at 1 µM (NLK) was 70%, the EC50 [3] was less than 10 nM and the GI50 (BaF3-FL-EGFR-del19) was 13 nM. The remaining binding at 1 µM (PLK1) was 100%, the remaining binding at 1 µM (RET(V804M)) was 93% and the remaining binding at 1 µM (IKK-alpha) was 98%. The remaining binding at 1 µM (BUB1) was 76%, the remaining binding at 1 µM [4] was 100% and the remaining binding at 1 µM (WEE2) was 84%. For the same compound, the remaining binding at 1 µM (ERN1) was 81%, the remaining binding at 1 µM (STK16) was 100% and the remaining binding at 1 µM (PIK3CA(E545A)) was 100%. The remaining binding at 1 µM (PRKX) was 81%, the GI50 (BaF3-TEL-EGFR-L858R) was less than 0.3 nM and the remaining binding at 1 µM (TRKB) was 100%. It also gave a remaining binding at 1 µM (CAMK1D) of 91%, a remaining binding at 1 µM (ABL2) of 99% and a remaining binding at 1 µM (DDR1) of 85%. For the same compound, the remaining binding at 1 µM (S6K1) was 100%, the remaining binding at 1 µM (MAP3K15) was 100% and the remaining binding at 1 µM (PRKD2) was 81%. It also gave a remaining binding at 1 µM (INSRR) of 100%.
